Laboratory results: US6780403B1, “Deodorants” (Kao Corporation, priority 1999, dated 2004)

Experiments:
[1] = 25° C.; method (D), data bases such as pKa BASE of Compudrug; cited from earlier work
[2] = acid dissociation index (pK1, pK2) at 25° C.; assay type: physicochemical; settings: for Difference (pK2 - pK1): 25° C., method (D); for first acid dissociation index / second acid dissociation index: for the dibasic acid, source of value not given
Description: The organic dibasic acid used as a deodorant in the present invention is selected from organic dibasic acids and/or salts thereof having a difference between the first acid dissociation index and the second acid dissociation index of 1.7 or more at 25° C. (hereinafter, described as deodorant organic dibasic acid). The acid dissociation index can be measured, for example, by a method (A) described in The Journal of Physical Chemistry vol.
Further, previously obtained data may also be used. […] Further, the organic dibasic acid can be selected based on data bases (D) such as pKa BASE of Compudrug, and the like. The first acid dissociation index and the second acid dissociation index of the organic dibasic acid may be determined by any of the methods (A) to (D).

Compound	First acid dissociation index (pK1) [1]	Second dissociation index (pK2) [1]	Difference (pK2 - pK1) [2]	first acid dissociation index [2]	second acid dissociation index [2]
CC(C)(C)C(C)(CC(=O)O)CC(=O)O [3-t-buthyl-3-methylglutaric acid]	3.61	7.49	3.88	–	–
CCC(CC)C(CC)(CCC(=O)O)C(=O)O (centres unmarked) [2-ethyl-2-(1-ethylpropyl)glutaric acid]	2.15	7.31	5.16	–	–
O=C(O)[C@@H]1CCC[C@H]1C(=O)O (relative stereo) [Trans-1,2-cyclopentandicarboxylic acid]	4.14	5.99	1.85	–	–
CC(C)C(CC(=O)O)(CC(=O)O)C(C)C [3,3-diisopropylglutaric acid]	3.65	7.68	4.05	–	–
O=C(O)[C@H]1CCCCCC[C@H]1C(=O)O [Cis-1,2-cyclooctanedicarboxylic acid]	3.99	7.34	3.35	–	–
CCCC(CCC)(C(=O)O)C(=O)O [2,2-dipropylmalonic acid]	1.86	7.18	5.32	–	–
CC(C)(CC(=O)O)CC(=O)O [3,3-dimethylglutaric acid]	3.85	6.45	2.60	–	–
CCC(C(=O)O)C(=O)O [2-ethylmalonic acid]	2.96	5.81	2.85	–	–
O=C(O)CC1(CC(=O)O)CCCCC1 [Cyclohexyl-1,1-diacetic acid]	3.49	7.08	3.59	–	–
CCC(CC)(C(=O)O)C(=O)O [2,2-diethylmalonic acid]	2.15	7.42	5.27	–	–
CC(C)(C(=O)O)C(C)(C)C(=O)O [Tetramethylsuccinic acid]	3.56	7.41	3.85	–	–
alkenylsuccinic acid carrying an alkenyl group having 12 carbon atoms [a-3]	–	–	–	4.06	6.01
CCC(C)(C(=O)O)C(=O)O [2-ethyl-2-methylmalonic acid]	2.20	6.55	4.35	–	–
CC1CCC(CC(=O)O)(CC(=O)O)CC1 [4-methylcyclohexyl-1,1-diacetic acid]	3.49	6.10	2.61	–	–
CCC(CC)(CC(=O)O)CC(=O)O [3,3-diethylglutaric acid]	3.67	7.42	3.75	–	–
O=C(O)CC(CC(=O)O)(c1ccccc1)c1ccccc1 [3,3-diphenylglutaric acid]	4.02	6.81	2.79	–	–
CC(C)(C)C(C(=O)O)C(C(=O)O)C(C)(C)C (centres unmarked) [2,3-di-t-butylsuccinic acid]	2.20	10.26	8.06	–	–
O=C(O)[C@H]1CCC[C@H]1C(=O)O [Cis-1,2-cyclopentanedicarboxylic acid]	4.42	6.57	2.15	–	–
CC1CCC(CC(=O)O)(CC(=O)O)C1 (centres unmarked) [3-methylcyclopentyl-1,1-diacetic acid]	3.79	6.74	2.95	–	–
CC(C(=O)O)C(=O)O [2-methylmalonic acid]	3.05	5.76	2.71	–	–
O=C(O)/C=C\C(=O)O [Maleic acid]	–	–	4.08	–	–
O=C(O)[C@@H]1CCCCC[C@H]1C(=O)O (relative stereo) [Trans-1,2-cycloheptanedicarboxylic acid]	4.30	6.18	1.88	–	–
CCC(C(=O)O)C(CC)C(=O)O (centres unmarked) [2,3-diethylsuccinic acid]	3.63	6.46	2.83	–	–
O=C(O)[C@H]1CC[C@H]1C(=O)O [Cis-1,2-cyclobutanedicarboxylic acid]	4.16	6.23	2.07	–	–

Compound	First acid dissociation index (pK1) [1]	Second dissociation index (pK2) [1]	Difference (pK2 - pK1) [2]	first acid dissociation index [2]	second acid dissociation index [2]
O=C(O)[C@@H]1CCCC[C@H]1C(=O)O (relative stereo) [Trans-1,2-cyclohexanedicarboxylic acid]	–	–	1.76	–	–
CC(C)(C(=O)O)C(=O)O [2,2-dimethylmalonic acid]	–	–	2.70	–	–
O=C(O)[C@H]1CCCC[C@H]1C(=O)O [Cis-1,2-cyclohexanedicarboxylic acid]	–	–	2.49	–	–
CC(C)(C)C(C(=O)O)C(=O)O [2-t-butylmalonic acid]	2.92	7.04	4.12	–	–
CC1CCCCC1(CC(=O)O)CC(=O)O (centres unmarked) [2-methylcyclohexyl-1,1-diacetic acid]	3.53	6.89	3.36	–	–
O=C(O)CC1(CC(=O)O)CCCC1 [cyclopentyl-1,1-diacetic acid]	3.80	6.77	2.97	–	–
O=C(O)[C@H]1C[C@H]1C(=O)O [Cis-1,2-cyclopropanedicarboxylic acid]	3.56	6.65	3.09	–	–
CC(C)C(C(=O)O)C(=O)O [2-isopropylmalonic acid]	2.92	5.88	2.96	–	–
alkenylsuccinic acid carrying an alkenyl group having 14 carbon atoms [a-4]	–	–	–	4.01	6.12
CC1CCCC(CC(=O)O)(CC(=O)O)C1 (centres unmarked) [3-methylcyclohexyl-1,1-diacetic acid]	3.49	6.08	2.59	–	–
CC(C(=O)O)C(C)C(=O)O (centres unmarked) [2,3-dimethylsuccinic acid]	3.92	6.00	2.08	–	–
CC(C)C(C(=O)O)(C(=O)O)C(C)C [2,2-diisopropylmalonic acid]	2.12	8.85	6.73	–	–
CC1(C)[C@H](C(=O)O)[C@@H]1C(=O)O [3,3-dimethyl-cis-1,2-cyclopropanedicarboxylic acid]	2.61	8.17	5.56	–	–
O=C(O)[C@H]1CCCCC[C@H]1C(=O)O [Cis-1,2-cycloheptanedicarboxylic acid]	3.87	7.60	3.73	–	–
O=C(O)CC(C(=O)O)c1ccccc1 (centres unmarked) [Phenylsuccinic acid]	3.78	5.55	1.77	–	–
O=C(O)[C@@H]1CCCCCC[C@H]1C(=O)O (relative stereo) [Trans-1,2-cyclooctanedicarboxylic acid]	4.37	6.24	1.87	–	–
CCCC(CC(=O)O)(CC(=O)O)c1ccccc1 [3-phenyl-3-propylglutaric acid]	3.88	6.94	3.06	–	–
CC(C)C(C)(CC(=O)O)CC(=O)O [3-isopropyl-3-methylglutaric acid]	3.78	6.92	3.14	–	–
CCC(C(=O)O)C(C)C(=O)O (centres unmarked) [2-ethyl-3-methylsuccinic acid]	3.20	6.10	2.90	–	–
CC(CC(=O)O)(CC(=O)O)c1ccccc1 [3-methyl-3-phenylglutaric acid]	4.12	6.17	2.05	–	–
CCC(CC(=O)O)(CC(=O)O)c1ccccc1 [3-ethyl-3-phenylglutaric acid]	3.89	6.95	3.06	–	–
CCCC(CCC)(CC(=O)O)CC(=O)O [3,3-dipropylglutaric acid]	3.65	7.48	3.83	–	–
CCC(C(=O)O)(C(=O)O)C(C)C [2-ethyl-2-isopropylmalonic acid]	2.03	8.10	6.07	–	–
CCC(C)(CC(=O)O)CC(=O)O [3-methyl-3-ethylglutaric acid]	3.62	6.70	3.08	–	–
